Measurements from US4292318A, “Product and method for combating swine dysentery” (priority 1979, dated 1981).
Converted amounts (≈) assume the structure as drawn.

Legend:
[1] = Teratogenetic study, mouse; format: in vivo; details: 250 mg/kg/day oral, 3rd to 13th days
Protocol: (§1) In view of the favourable results on chronic toxicity, a teratogenic study was conducted with male and female mice and rats.
a. Animal Species: Mouse, Male and female mice housed together for 10
Oral treatment from 3rd day to 13th days.

[2] = Acute toxicity in the guinea pig by esophageal administration; format: in vivo
Protocol: (§2) The compound was tested for acute toxicity by several modes of administration in four species, namely mice, rat, guinea pig, and rabbit. […] The results are given below in Tables 3, 4, 5 and 6.

[3] = Acute toxicity by several modes of administration in four species; format: in vivo, and rabbit; details: mice, rat, guinea pig, rabbit
Protocol: as §2

[4] = Acute toxicity in female mice; format: in vivo
Protocol: as §2

[5] = Teratogenetic study, rat; format: in vivo; details: 250 mg/kg/day oral, same conditions as mouse
Protocol: as §1
b. Animal Species. Rat. Same experimental conditions as with the mouse.

[6] = Subacute toxicity in female rats; format: in vivo, rat; details: 2 g/kg/day by gastric lavage for 21 days
[7] = Chronic toxicity in the female mouse; format: in vivo; details: for Dead/Treated / Body Weight in g (m ± SE) Start / Body Weight in g (m ± SE) Termination: gastric lavage, 18 weeks; for Fresh Organ-to-Body-Weight Ratio, Heart / Fresh Organ-to-Body-Weight Ratio, Kidneys / Fresh Organ-to-Body-Weight Ratio, Liver / Fresh Organ-to-Body-Weight Ratio, Lungs: m ± SE, 4 animals; for Blood Glucose / SGOT / SGPT: mean of 6 animals, 24 hours after last dose
From the text: In view of the favourable sub-acute toxicity, the chronic toxicity in female mice was studied.

[8] = General safety statement; details: statement in the description
[9] = test system: Treponema hyodysenteriae; experiment: In vitro test against Treponema hyodysenteriae (MIC, MBC); format: cell-based; details: Brachyspira hyodysenteriae, lowest concentration in a dilution series where growth is inhibited, read-out: minimum inhibitory concentration
Protocol: D was tested in vitro against Treponema hyodysenteriae by a known method. The minimum inhibitory concentration (the lowest concentration of compound in a dilution series where growth is inhibited) was 0.1 mcg/ml. The minimum bactericidal concentration (the lowest concentration of compound in which no viable treponemes are observed upon dilution and subculture from the broth onto blood agar plates) was greater than 0.1 mcg/ml but less than 1 mcg/ml.

[10] = Subacute toxicity in the mouse; format: in vivo; details: for SGOT / SGPT: 24 hrs. after last dose
Protocol: In view of the favourable acute toxicity data, the compound was administered orally in sub-acute, but relatively large, doses to mice and rats for 15 days. Data were collected on the effects on death rate, weight, liver, and kidneys.

[11] = Teratogenic study with male and female mice and rats; format: in vivo
Protocol: as §1

[12] = Acute toxicity in the rabbit by esophageal administration; format: in vivo
Protocol: as §2

[13] = test system: five strains of Vibrio cholerae; experiment: In vitro effect on five strains of Vibrio cholerae (summary)
[14] = Acute toxicity in the rat; format: in vivo; details: for Dead/Treated within 21 days / Body weight (m ± SEM) in g. start / Body weight (m ± SEM) in g. Termination: First Experiment; for Body weight (m ± SEM) in g. Termination: Student's t test: t 0.05
Protocol: as §2

[15] = 500 mg/kg/day by gastric lavage for 15 days
[16] = in adraganth gum, 1 g/kg/day for 15 days
[17] = Second Experiment, F, esophageal, 4000 mg/kg
[18] = Second Experiment, F, intraperitoneal, 500 mg/kg
[19] = Second Experiment, M, esophageal, 4000 mg/kg
[20] = Second Experiment, M, intraperitoneal, 500 mg/kg

SMILES: CCC(C)c1cnc(CC(C)C)c(=O)n1O [D, D-aspergillic acid]
- Body Weight of Foetuses in g (m ± SE) [1]: 1.42 ± 0.05 g
- No. of Foetuses with malformations [1]: 0
- No. of living Foetuses per Delivery (m ± SE) [1]: 10.3 ± 0.6
- Pregnant/Treated Animals [1]: 3/10
- Dead/Treated within 21 days ([2]; 500 mg/kg): 0/4
- Dead/Treated within 21 days ([2]; 1000 mg/kg): 1/4
- Dead/Treated within 21 days ([2]; 2000 mg/kg): 5/6
- Dead/Treated within 21 days ([2]; 4000 mg/kg): 6/6
- acute toxicity [3]: low order of toxicity
- Dead/Treated Animals after 7 days ([4]; endoperitoneal, 250 mg/kg): 0/18
- Dead/Treated Animals after 7 days ([4]; endoperitoneal, 500 mg/kg): 6/12
- Dead/Treated Animals after 2 days ([4]; endoperitoneal, 1000 mg/kg, 2 days): 6/6
- Dead/Treated Animals after 7 days ([4]; endoperitoneal, 1000 mg/kg): 6/6
- Dead/Treated Animals after 1 day ([4]; endoperitoneal, 2000 mg/kg, 1 day): 6/6
- Dead/Treated Animals after 7 days ([4]; endoperitoneal, 2000 mg/kg): 6/6
- Dead/Treated Animals after 7 days ([4]; esophageal, 1000 mg/kg): 0/12
- Dead/Treated Animals after 7 days ([4]; esophageal, 2000 mg/kg): 0/12
- Dead/Treated Animals after 4 days ([4]; esophageal, 4000 mg/kg, 4 days): 1/12
- Dead/Treated Animals after 7 days ([4]; esophageal, 4000 mg/kg): 1/12
- Body Weight of Foetuses in g (m ± SE) [5]: 7.08 ± 0.19 g
- No. of Foetuses with malformations [5]: 0
- No. of living Foetuses per Delivery (m ± SE) [5]: 10.8 ± 0.86
- Pregnant/Treated Animals [5]: 7/10
- Average Percent Weight of Fresh Organs, Kidneys ([6]; 5 animals, NS): 1.04 ± 0.03%
- Average Percent Weight of Fresh Organs, Liver ([6]; 5 animals, NS): 4.54 ± 0.10%
- Average Percent Weight of Fresh Organs, Lung ([6]; 5 animals, NS): 1.07 ± 0.09%
- Body Weight in g (m ± SE) Start ([6]; start): 204.1 ± 2.0 g
- Body Weight in g (m ± SE) Termination ([6]; termination): 210.6 ± 9.6 g
- Dead/Treated ([6]; D, death caused by a mistake in esophagus incannulation): 1/6
- Urine Amount excreted by 6 animals in 6 hours ([7]; 250 mg/kg/day): 6.5 mL
- Dead/Treated ([7]; 250 mg/kg/day): 0/10
- Body Weight in g (m ± SE) Start ([7]; 250 mg/kg/day): 27.3 ± 0.5 g
- Body Weight in g (m ± SE) Termination ([7]; 250 mg/kg/day): 26.7 ± 0.7 g
- Fresh Organ-to-Body-Weight Ratio, Heart ([7]; 250 mg/kg/day): 0.60 ± 0.08
- Fresh Organ-to-Body-Weight Ratio, Kidneys ([7]; 250 mg/kg/day): 0.87 ± 0.08
- Fresh Organ-to-Body-Weight Ratio, Liver ([7]; 250 mg/kg/day): 4.57 ± 0.25
- Fresh Organ-to-Body-Weight Ratio, Lungs ([7]; 250 mg/kg/day): 0.731 ± 0.035
- Blood Glucose ([7]; 250 mg/kg/day): 1.10
- SGOT ([7]; 250 mg/kg/day): 118 Units/ml
- SGPT ([7]; 250 mg/kg/day): 5 Units/ml
- Urine Amount excreted by 6 animals in 6 hours ([7]; 500 mg/kg/day): 7 mL
- Dead/Treated ([7]; 500 mg/kg/day): 2/10
- Body Weight in g (m ± SE) Start ([7]; 500 mg/kg/day): 30.4 ± 0.9 g
- Body Weight in g (m ± SE) Termination ([7]; 500 mg/kg/day): 30.0 ± 0.7 g
- Fresh Organ-to-Body-Weight Ratio, Heart ([7]; 500 mg/kg/day): 0.47 ± 0.02
- Fresh Organ-to-Body-Weight Ratio, Kidneys ([7]; 500 mg/kg/day): 1.07 ± 0.04
- Fresh Organ-to-Body-Weight Ratio, Liver ([7]; 500 mg/kg/day): 4.66 ± 0.91
- Fresh Organ-to-Body-Weight Ratio, Lungs ([7]; 500 mg/kg/day): 1.011 ± 0.110
- Blood Glucose ([7]; 500 mg/kg/day): 1.06
- SGOT ([7]; 500 mg/kg/day): 159 Units/ml
- SGPT ([7]; 500 mg/kg/day): 6 Units/ml
- nitrogenic (so in the source) [8]: not nitrogenic
- MIC [9]: 0.1 µg/mL (≈ 0.446 µM)
- % Body Weight Change [10, 15]: -8.1 ± 3.9%
- Dead/Treated [10, 15]: 0/10
- Fresh Organ-to-Body Weight Ratio, Kidneys [10, 15]: 1.5 ± 0.1
- Fresh Organ-to-Body Weight Ratio, Liver [10, 15]: 5.9 ± 0.3
- % Body Weight Change ([10]; in H2O, 1 g/kg/day for 15 days): 18.5 ± 0.75%
- Dead/Treated ([10]; in H2O, 1 g/kg/day for 15 days): 2/12
- % Body Weight Change [10, 16]: 16.27 ± 1.31%
- Dead/Treated [10, 16]: 3/12
- SGOT ([10]; in adraganth gum): 132 Units/ml
- SGPT ([10]; in adraganth gum): 10 Units/ml
- SGOT ([10]; in water): 124 Units/ml
- SGPT ([10]; in water): 9 Units/ml
- number of young delivered live at birth [11]: comparable with controls
- malformations ([11]; either group): No malformations
- Dead/Treated within 7 days ([12]; 500 mg/kg): 0/2
- Body Weight in g. start ([12]; 500 mg/kg, start): 2000 to 2100 g
- Dead/Treated within 7 days ([12]; 1000 mg/kg): 0/4
- Body Weight (m ± SE) in g. start ([12]; 1000 mg/kg, start): 2037 ± 104.3 g
- Body Weight (m ± SE) in g. Termination ([12]; 1000 mg/kg, termination): 1922.5 ± 71.5 g
- Dead/Treated within 7 days ([12]; 2000 mg/kg): 0/2
- dead out of treated animals, within 4 days (footnote) ([12]; 2000 mg/kg, within 4 days): two dead out of seven treated animals
- growth of 3 of the organisms ([13]; 10 mcg/ml, after 48 hours): no growth
- growth of the remaining two organisms ([13]; 100 mcg/ml): only marginal growth
- Dead/Treated within 7 days ([14]; Cumulative data regardless of sex, esophageal, 4000 mg/kg): 0/16
- Dead/Treated within 7 days ([14]; Cumulative data regardless of sex, intraperitoneal, 500 mg/kg): 4/16
- Dead/Treated within 21 days ([14]; F, endoperitoneal, 500 mg/kg): 2/4
- Body weight (m ± SEM) in g. start ([14]; F, endoperitoneal, 500 mg/kg): 206.2 ± 8.7 g
- Dead/Treated within 21 days ([14]; F, esophageal, 4000 mg/kg): 0/4
- Body weight (m ± SEM) in g. start ([14]; F, esophageal, 4000 mg/kg): 201.2 ± 4.2 g
- Body weight (m ± SEM) in g. Termination ([14]; F, esophageal, 4000 mg/kg): 238.2 ± 12.1 g
- Dead/Treated within 21 days ([14]; M, endoperitoneal, 500 mg/kg): 1/4
- Body weight (m ± SEM) in g. start ([14]; M, endoperitoneal, 500 mg/kg): 234.0 ± 6.2 g
- Body weight (m ± SEM) in g. Termination ([14]; M, endoperitoneal, 500 mg/kg): 314.3 ± 10.3 g
- Dead/Treated within 21 days ([14]; M, esophageal, 4000 mg/kg): 0/4
- Body weight (m ± SEM) in g. start ([14]; M, esophageal, 4000 mg/kg): 234.5 ± 13.8 g
- Body weight (m ± SEM) in g. Termination ([14]; M, esophageal, 4000 mg/kg): 288.7 ± 13.8 g
- Dead/Treated within 7 days [14, 17]: 0/4
- Body weight (±SE) in g. start [14, 17]: 252.0 ± 16.6 g
- Body weight (±SE) in g. Termination [14, 17]: 253.5 ± 12.1 g
- Dead/Treated within 7 days [14, 18]: 0/4
- Body weight (±SE) in g. start [14, 18]: 232.5 ± 5.9 g
- Body weight (±SE) in g. Termination [14, 18]: 218.2 ± 7.0 g
- Dead/Treated within 7 days [14, 19]: 0/4
- Body weight (±SE) in g. start [14, 19]: 222.5 ± 6.2 g
- Body weight (±SE) in g. Termination [14, 19]: 231.7 ± 15.7 g
- Dead/Treated within 7 days [14, 20]: 2/4
- Body weight (±SE) in g. start [14, 20]: 226.2 ± 6.8 g
